Patent publication US20230399325A1, “SUCCINATE AND CRYSTAL FORM THEREOF AS THERAPEUTICS” (AUCENTRA THERAPEUTICS PTY LTD, priority 2020, published 2023)
Values after ≈ are worked out from the molar mass of the structure shown. Values joined by “and” are separate entries in the source; they are usually repeats but may differ in a detail not shown here. Equal entries are not always repeated. Where two headings read alike, the source gives them in different places.

What was measured:
[1] = system: COLO 205 colorectal tumor xenograft; assay: COLO 205 colorectal tumor xenograft; type: in vivo, mice; details: 15 mg/kg intraperitoneally
Experimental: A separate study of Compound A succinate was conducted in COLO 205 colorectal tumor xenograft. The tumor-bearing mice (n=8) were treated orally with vehicle (ultra-pure water), or Compound A succinate (50 or 100 mg/kg) once daily for 21 days. As a positive control chemotherapy 5-FU (15 mg/kg) was given intraperitoneally. […] 5-FU was also effective with a T/C=47.2% (Table 7).

[2] = Solid-state stability, 14 days, HPLC; type: physicochemical
Experimental: Compound A salts and Compound A were tested for their solid-state stability under the conditions of 25° C./60% RH and 40° C./75% RH.

[3] = Hygroscopicity by dynamic moisture adsorption (DVS); type: physicochemical; details: for Hygroscopicity: 25° C./80% RH
Experimental: Dynamic moisture adsorption (DVS) was used to evaluate the hygroscopicity of compound A and salt forms under the condition of 25° C. and 80% RH.

[4] = Dynamic solubility in water and FaSSIF at 37° C.; type: physicochemical; details: for solubility compared to Compound A free base: both FaSSIF and water; for solubility at 1 h / solubility at 2 h / solubility at 4 h / solubility at 24 h: thermodynamic from solid, read-out: S: Solubility
[5] = Pharmacokinetic study of Compound A in male cynomolgus monkeys; type: in vivo
Experimental: Two groups of male cynomolgus monkeys (n=3 per group) were given Compound A by a single intravenous injection (i.v.) of 5 mg/kg, or intragastric administration (i.g.) of 50 mg/kg. Blood samples were collected at different time points. The exposure of Compound A in plasma samples were measured by LC-MS/MS method, and PK parameters (Table 8) were calculated using Phoenix WinNonlin 8.0 software.

[6] = system: A2780 ovarian cancer cells; assay: Subcutaneous A2780 ovarian cancer xenograft; type: in vivo, female BALB/c nude mice; details: 75 mg/kg orally once a day
Experimental: Compound A succinate was also assessed for in vivo anti-tumor activity in subcutaneous xenografts. Briefly, female BALB/c nude mice were inoculated with A2780 ovarian cancer cells; when the mean tumour volume reached 150-200 mm^3, animals were randomized to groups. The animals (n=8 per group) were treated orally with vehicle (ultra-pure water), Compound A succinate (62.5, 125 or 250 mg/kg), or Palbociclib (75 mg/kg) once a day for 14 consecutive days. Mice were observed daily for signs of toxicity and weight loss, and tumour volume measured every other day. […] Palbociclib was efficacious at 75 mg/kg, resulting in T/C of 42.8% (Table 6).

[7] = cynomolgus monkey, plasma, iv, i.v. 5 mg/kg
[8] = cynomolgus monkey, plasma, po, i.g. 50 mg/kg

For `O=c1[nH]cc(F)c(=O)[nH]1` [Compound 5-FU, 5-FU, reference compound], the “Inhibition of tumor growth (T/C)” value [1] was 47.2% and the “Tumor volume (±S)” value [1] was 799.62 ± 61.95 mm^3.
In the case of `CCN1CCN(Cc2ccc(Nc3ncc(F)c(-c4sc(NC5CCCC5)nc4C)n3)nc2)CC1.Cl` [Compound A hydrochloride], the Purity ([2]; 25° C./60% RH) is reported as 97.6 area %, the Relative purity ([2]; 25° C./60% RH) is reported as 99.9 % of initial and the Purity ([2]; 40° C./75% RH) is reported as 97.7 area %. The Relative purity ([2]; 40° C./75% RH) was 100.0 % of initial, the “Moisture absorbed at 25° C./80% RH” value [3] was 3.4% and the Hygroscopicity [3] was “Hygroscopic”. The “S: Solubility” value ([4]; FaSSIF, 1 hour) was 2000 µg/mL, the “S: Solubility” value ([4]; FaSSIF, 2 hours) was 2000 µg/mL and the “S: Solubility” value ([4]; FaSSIF, 4 hours) was 2200 µg/mL. For the same compound, the “S: Solubility” value ([4]; FaSSIF, 24 hours) was 2100 µg/mL, the “S: Solubility” value ([4]; H2O, 1 hour) was 6800 µg/mL and the “S: Solubility” value ([4]; H2O, 2 hours) was 7100 µg/mL. The “S: Solubility” value ([4]; H2O, 4 hours) was 7200 µg/mL, the “S: Solubility” value ([4]; H2O, 24 hours) was 6800 µg/mL and the “solubility compared to Compound A free base” value [4] was “significantly increased”.
With `CCN1CCN(Cc2ccc(Nc3ncc(F)c(-c4sc(NC5CCCC5)nc4C)n3)nc2)CC1.CS(=O)(=O)O` [Compound A mesylate] the Purity ([2]; 25° C./60% RH) was 97.6 area %, the Relative purity ([2]; 25° C./60% RH) was 100.1 % of initial and the Purity ([2]; 40° C./75% RH) was 97.5 area %. The Relative purity ([2]; 40° C./75% RH) was 100.0 % of initial, the “Moisture absorbed at 25° C./80% RH” value [3] was 14.4% and the Hygroscopicity [3] was “Extremely hygroscopic”. For the same compound, the “S: Solubility” value ([4]; FaSSIF, 1 hour) was 8800 µg/mL, the “S: Solubility” value ([4]; FaSSIF, 2 hours) was 8300 µg/mL and the “S: Solubility” value ([4]; FaSSIF, 4 hours) was 8400 µg/mL. The “S: Solubility” value ([4]; FaSSIF, 24 hours) was 4400 µg/mL, the “S: Solubility” value ([4]; H2O, 1 hour) was 8200 µg/mL and the “S: Solubility” value ([4]; H2O, 2 hours) was 8300 µg/mL. For the same compound, the “S: Solubility” value ([4]; H2O, 4 hours) was 8600 µg/mL, the “S: Solubility” value ([4]; H2O, 24 hours) was 8500 µg/mL and the “solubility compared to Compound A free base” value [4] was “significantly increased”.
For `CCN1CCN(Cc2ccc(Nc3ncc(F)c(-c4sc(NC5CCCC5)nc4C)n3)nc2)CC1.O=P(O)(O)O` [Compound A phosphate], the Purity ([2]; 25° C./60% RH) was 98.3 area %, the Relative purity ([2]; 25° C./60% RH) was 100.0 % of initial and the Purity ([2]; 40° C./75% RH) was 98.2 area %. For the same compound, the Relative purity ([2]; 40° C./75% RH) was 99.9 % of initial, the “Moisture absorbed at 25° C./80% RH” value [3] was 3.7% and the Hygroscopicity [3] was “Hygroscopic”. The “S: Solubility” value ([4]; FaSSIF, 1 hour) was 1700 µg/mL, the “S: Solubility” value ([4]; FaSSIF, 2 hours) was 670 µg/mL and the “S: Solubility” value ([4]; FaSSIF, 4 hours) was 470 µg/mL. The “S: Solubility” value ([4]; FaSSIF, 24 hours) was 330 µg/mL, the “S: Solubility” value ([4]; H2O, 1 hour) was 450 µg/mL and the “S: Solubility” value ([4]; H2O, 2 hours) was 410 µg/mL. For the same compound, the “S: Solubility” value ([4]; H2O, 4 hours) was 440 µg/mL and the “S: Solubility” value ([4]; H2O, 24 hours) was 360 µg/mL.
For `CCN1CCN(Cc2ccc(Nc3ncc(F)c(-c4sc(NC5CCCC5)nc4C)n3)nc2)CC1` [Compound A, N-Cyclopentyl-5-(2-((5-((4-ethylpiperazin-1-yl)methyl)pyridin-2-yl)amino)-5-fluoropyrimidin-4-yl)-4-methylthiazol-2-amine], the Purity ([2]; 25° C./60% RH) was 97.6 area %, the Relative purity ([2]; 25° C./60% RH) was 100.0 % of initial and the Purity ([2]; 40° C./75% RH) was 97.6 area %. For the same compound, the Relative purity ([2]; 40° C./75% RH) was 100.1 % of initial, the “Moisture absorbed at 25° C./80% RH” value [3] was 1.4% and the Hygroscopicity [3] was “Slightly hygroscopic”. For the same compound, the solubility at 1 h ([4]; FaSSIF, 1 hour) was 270 µg/mL (≈ 544 µM), the solubility at 2 h ([4]; FaSSIF, 2 hours) was 280 µg/mL (≈ 564 µM) and the solubility at 4 h ([4]; FaSSIF, 4 hours) was 240 µg/mL (≈ 483 µM). For the same compound, the solubility at 24 h ([4]; FaSSIF, 24 hours) was 200 µg/mL (≈ 403 µM), the solubility at 1 h ([4]; water, H2O, 1 hour) was 220 µg/mL (≈ 443 µM) and the solubility at 2 h ([4]; water, H2O, 2 hours) was 240 µg/mL (≈ 483 µM). The solubility at 4 h ([4]; water, H2O, 4 hours) was 240 µg/mL (≈ 483 µM), the solubility at 24 h ([4]; water, H2O, 24 hours) was 220 µg/mL (≈ 443 µM) and the AUC(0-inf) [5, 7] was 4560 ng·h/mL. The AUC(0-t) [5, 7] was 4190 ng·h/mL, the Cmax [5, 7] was 447 ng/mL and the Vd [5, 7] was 9.8 L/kg. The clearance [5, 7] was 19.4 mL/min/kg, the half-life [5, 7] was 6.5 h and the Cmax [5, 8] was 643 ng/mL. The half-life [5, 8] was 8.3 h and the F ([5]; i.g. 50 mg/kg) was 21.8%.
For `CC(=O)c1c(C)c2cnc(Nc3ccc(N4CCNCC4)cn3)nc2n(C2CCCC2)c1=O` [Palbociclib, reference compound], the “Tumor volume (±S)” value ([6]; 14 days) was 1850.1 ± 121.1 mm^3 and the “Mean tumor growth inhibition (T/C)” value ([6]; day 14) was 42.8% and 42.79%.
